Measurements: patent US9827219B2, “Compositions and methods for lowering levels of high-sensitivity C-reactive protein (HS-CRP) in a subject” (priority 2012, dated 2017)

How the values were obtained:
Format in all cases: in vivo, human
TG = TG in patients with diabetes mellitus-2 (Example 2); conditions: 4 g/day, 12 weeks, on statin
Excerpt: (§1) Parameters (a)-(y) can be measured in accordance with any clinically acceptable methodology. For example, triglycerides, total cholesterol, HDL-C and fasting blood sugar can be sample from serum and analyzed using standard photometry techniques. VLDL-TG, LDL-C and VLDL-C can be calculated or determined using serum lipoprotein fractionation by preparative ultracentrifugation and subsequent quantitative analysis by refractometry or by analytic ultracentrifugal methodology. Apo A1, Apo B and hsCRP can be determined from serum using standard nephelometry techniques. Lipoprotein (a) can be determined from serum using standard turbidimetric immunoassay techniques. LDL particle number and particle size can be determined using nuclear magnetic resonance (NMR) spectrometry. Remnants lipoproteins and LDL-phospholipase A2 can be determined from EDTA plasma or serum and serum, respectively, using enzymatic immunoseparation techniques. Oxidized LDL, intercellular adhesion molecule-1 and interleukin-2 levels can be determined from serum using standard enzyme immunoassay techniques. These techniques are described in detail in standard textbooks, for example Tietz Fundamentals of Clinical Chemistry, 6th Ed. […]
The effect of >96% E-EPA on lipid and inflammatory parameters was evaluated in patients with fasting triglyceride levels ≧150 mg/dl and <499 mg/dl on concomitant statin therapy. […]

Ox-LDL = assay: MARINE study, oxidized LDL; conditions: MARINE ITT, week 12
Excerpt: as §1, with “Ed. (Burtis, Ashwood and Borter Eds.), WB Saunders Company.” for “Ed.”

hsCRP [1] = assay: hsCRP in patients with diabetes mellitus-2 (Example 2); conditions: 4 g/day, 12 weeks, on statin
Excerpt: (§2) Parameters (a)-(y) can be measured in accordance with any clinically acceptable methodology. For example, triglycerides, total cholesterol, HDL-C and fasting blood sugar can be sample from serum and analyzed using standard photometry techniques. VLDL-TG, LDL-C and VLDL-C can be calculated or determined using serum lipoprotein fractionation by preparative ultracentrifugation and subsequent quantitative analysis by refractometry or by analytic ultracentrifugal methodology. Apo A1, Apo B and hsCRP can be determined from serum using standard nephelometry techniques. Lipoprotein (a) can be determined from serum using standard turbidimetric immunoassay techniques. LDL particle number and particle size can be determined using nuclear magnetic resonance (NMR) spectrometry. Remnants lipoproteins and LDL-phospholipase A2 can be determined from EDTA plasma or serum and serum, respectively, using enzymatic immunoseparation techniques. Oxidized LDL, intercellular adhesion molecule-1 and interleukin-2 levels can be determined from serum using standard enzyme immunoassay techniques. These techniques are described in detail in standard textbooks, for example Tietz Fundamentals of Clinical Chemistry, 6th Ed. (Burtis, Ashwood and Borter Eds.), WB Saunders Company.
(§3) The effect of >96% E-EPA on lipid and inflammatory parameters was evaluated in patients with fasting triglyceride levels ≧150 mg/dl and <499 mg/dl on concomitant statin therapy. Patients with diabetes mellitus-2 were randomized and treated with either 2 g/day >96% E-EPA, 4 g/day >96%, or placebo for twelve weeks. At the end of the treatment period, several diabetes efficacy endpoints were evaluated including, TG, LDL-C, non-HDL-C, VLDL-C, Lp-PLA2, Apo B, TC, HDL-C, VLDL-TG, hs-CRP, oxLDL, and RLP-C.

hsCRP [2] = assay: MARINE study, hsCRP (also by concomitant statin use)
Excerpt: as §2
(§4) A multi-center, placebo-controlled randomized, double-blind, 12-week study with an open-label extension was performed to evaluate the efficacy and safety of AMR101 in patients with fasting triglyceride levels ≧500 mg/dL. The primary objective of the study was to determine the efficacy of AMR101 2 g daily and 4 g daily, compared to placebo, in lowering fasting TG levels in patients with fasting TG levels ≧500 mg/dL and ≦1500 mg/dL (≧5.65 mmol/L and ≦16.94 mmol/L).
(§5) The population for this study was men and women (women of childbearing potential will need to be on contraception or practice abstinence)>18 years of age with a body mass index ≦45 kg/m^2 who were not on lipid-altering therapy or were currently on lipid-altering therapy. Patients currently on statin therapy (with or without ezetimibe) were evaluated by the investigator as to whether this therapy can be safely discontinued at screening, or if it should be continued. If statin therapy (with or without ezetimibe) was to be continued, dose(s) must have been stable for ≧4 weeks prior to randomization. Patients taking non-statin, lipid-altering medications (niacin >200 mg/day, fibrates, fish oil, other products containing omega-3 fatty acids, or other herbal products or dietary supplements with potential lipid-altering effects), either alone or in combination with statin therapy (with or without ezetimibe), must have been able to safely discontinue non-statin, lipid-altering therapy at screening.
(§6) Approximately 240 patients were randomized at approximately 50 centers in North America, South America, Central America, Europe, India, and South Africa. The study was a 58- to 60-week, Phase 3, multi-center study consisting of 3 study periods: (1) A 6- to 8-week screening period that included a diet and lifestyle stabilization and washout period and a TG qualifying period; (2) A 12-week, double-blind, randomized, placebo-controlled treatment period; and (3) A 40-week, open-label, extension period.
(§7) After confirmation of qualifying fasting TG values, eligible patients entered a 12-week, randomized, double-blind treatment period. At Visit 4 (Week 0), patients were randomly assigned to 1 of the following treatment groups: • AMR101 2 g daily, • AMR101 4 g daily, or • Placebo.
(§8) Eligible patients were randomly assigned at Visit 4 (Week 0) to receive orally AMR101 2 g daily, AMR101 4 g daily, or placebo for the 12-week double-blind treatment period. AMR101 was provided in 1 g liquid-filled, oblong, gelatin capsules. The matching placebo capsule was filled with light liquid paraffin and contained 0 g of AMR101. […]

Non-HDL-C = Non-HDL-C in patients with diabetes mellitus-2 (Example 2); conditions: 4 g/day, 12 weeks, on statin
Protocol: as §3

[3] = system: TG, LDL-C, non-HDL-C, VLDL-C, Lp-PLA2, Apo B, TC, HDL-C, VLDL-TG, hs-CRP, oxLDL, RLP-C; assay: Lipid and inflammatory parameters in statin-treated patients with diabetes mellitus-2, all endpoints (Example 2); conditions: for Each evaluated endpoint (TG, LDL-C, non-HDL-C, VLDL-C, Lp-PLA2, Apo B, TC, HDL-C, VLDL-TG, hs-CRP, oxLDL, RLP-C), adjusted for placebo: twelve weeks, diabetes mellitus-2, FIG. 1
Excerpt: as §2, §3

IL-6 = assay: MARINE study, IL-6; conditions: MARINE ITT, week 12
Protocol: as §4, §5, §6, §7
as §8, with “AMR101. During the double-blind treatment period, patients took 2 capsules (AMR101 or matching placebo) in the morning and 2 in the evening for a total of 4 capsules per day.” for “AMR101.”

[4] = well-controlled diabetes (HbA1c < median of 6.8%)
[5] = less-controlled diabetes (HbA1c ≧ median of 6.8%)

CC/C=C\C/C=C\C/C=C\C/C=C\C/C=C\CCCC(=O)OCC [AMR101, all-cis eicosa-5,8,11,14,17-pentaenoic acid ethyl ester]
Median placebo-adjusted percent change in TG from baseline to study end (TG; total diabetes): −23.2% | Median placebo-adjusted percent change in TG from baseline to study end (TG; [4]): −21.0% | Ox-LDL change from baseline (median) (Ox-LDL; 2 g/day): 0.4% | Ox-LDL change from baseline (median) (Ox-LDL; 4 g/day): −3.0% | Median placebo-adjusted percent change in hsCRP from baseline to study end (hsCRP [1]; [5]): −34.6% | Median placebo-adjusted percent change in hsCRP from baseline to study end (hsCRP [1]; total diabetes): −21.5% | Median placebo-adjusted percent change in hsCRP from baseline to study end (hsCRP [1]; [4]): −4.0% | hsCRP end-of-treatment value, median (hsCRP [2]; MARINE ITT, 2 g/day, week 12): 2.4 mg/L | hsCRP change from baseline (median) (hsCRP [2]; MARINE ITT, 4 g/day, week 12): −2.5% | hsCRP end-of-treatment value, median (hsCRP [2]; MARINE ITT, 4 g/day, week 12): 2.2 mg/L | hsCRP median placebo-adjusted % change from baseline (hsCRP [2]; MARINE, no statin, AMR101 2 g/day vs placebo, P 0.8297): −2.7% | hsCRP change from baseline, median % (hsCRP [2]; MARINE, no statin, AMR101 2 g/day, week 12): 31.7% | hsCRP end-of-treatment value, median (hsCRP [2]; MARINE, no statin, AMR101 2 g/day, week 12, baseline 2.2): 2.5 mg/L | hsCRP median placebo-adjusted % change from baseline (hsCRP [2]; MARINE, no statin, AMR101 4 g/day vs placebo, P 0.0311): −27.4% | hsCRP change from baseline, median % (hsCRP [2]; MARINE, no statin, AMR101 4 g/day, week 12): 0.0% | hsCRP end-of-treatment value, median (hsCRP [2]; MARINE, no statin, AMR101 4 g/day, week 12, baseline 2.2): 2.2 mg/L | hsCRP median placebo-adjusted % change from baseline (hsCRP [2]; MARINE, statin, AMR101 2 g/day vs placebo, P 0.1707): −33.2% | hsCRP change from baseline, median % (hsCRP [2]; MARINE, statin, AMR101 2 g/day, week 12): 11.7% | hsCRP end-of-treatment value, median (hsCRP [2]; MARINE, statin, AMR101 2 g/day, week 12, baseline 1.5): 1.6 mg/L | hsCRP median placebo-adjusted % change from baseline (hsCRP [2]; MARINE, statin, AMR101 4 g/day vs placebo, P 0.0098): −67.9% | hsCRP change from baseline, median % (hsCRP [2]; MARINE, statin, AMR101 4 g/day, week 12): −30.6% | hsCRP end-of-treatment value, median (hsCRP [2]; MARINE, statin, AMR101 4 g/day, week 12, baseline 1.9): 1.3 mg/L | hsCRP median placebo-adjusted change from baseline (hsCRP [2]; MARINE, 2 g/day, with concomitant statin therapy): statistically insignificant | hsCRP median placebo-adjusted change from baseline (hsCRP [2]; MARINE, 2 g/day, without concomitant statin therapy): statistically insignificant | hsCRP median placebo-adjusted change from baseline (hsCRP [2]; MARINE, 4 g/day, with concomitant statin therapy): −67.9% | hsCRP median placebo-adjusted change from baseline (hsCRP [2]; MARINE, 4 g/day, without concomitant statin therapy): −27.4% | Median placebo-adjusted percent change in Non-HDL-C from baseline to study end (Non-HDL-C; [5]): −18.0% | Median placebo-adjusted percent change in Non-HDL-C from baseline to study end (Non-HDL-C; total diabetes): −14.4% | Median placebo-adjusted percent change in Non-HDL-C from baseline to study end (Non-HDL-C; [4]): −11.3% | Each evaluated endpoint (TG, LDL-C, non-HDL-C, VLDL-C, Lp-PLA2, Apo B, TC, HDL-C, VLDL-TG, hs-CRP, oxLDL, RLP-C), adjusted for placebo ([3]; 2 g/day): showed a decrease | Each evaluated endpoint (TG, LDL-C, non-HDL-C, VLDL-C, Lp-PLA2, Apo B, TC, HDL-C, VLDL-TG, hs-CRP, oxLDL, RLP-C), adjusted for placebo ([3]; 4 g/day): showed a decrease | Placebo-adjusted effects on non-HDL-C, VLDL-C, Apo B, TC, VLDL-TG, hsCRP and oxLDL, less-controlled versus well-controlled subjects ([3]; 4 g/day, Table 7 and FIG. 3): more pronounced effects were observed in less-controlled diabetics | IL-6 change from baseline (median) (IL-6; 2 g/day): 3.4% | IL-6 end-of-treatment value (median) (IL-6; 2 g/day): 3.0 pg/mL | IL-6 change from baseline (median) (IL-6; 4 g/day): 0.3% | IL-6 end-of-treatment value (median) (IL-6; 4 g/day): 2.4 pg/mL
